From ChEMBL document CHEMBL1125630, “Positional effects of sulfation in hirudin and hirudin PA related anticoagulant peptides” (J Med Chem, 1991)

Experiment: In vitro inhibition fibrin clot formation after addition of thrombin.
Assay type: functional, Homo sapiens

| Compound | IC50 |
| --- | --- |
| CC[C@H](C)[C@H](NC(=O)[C@@H]1CCCN1C(=O)C(CCC(=O)O)NC(=O)[C@H](Cc1ccc(O)cc1)NC(=O)CCC(=O)O)C(=O)N1CCC[C@H]1C(=O)NC(CCC(=O)O)C(=O)NC(CCC(=O)O)C(=O)N[C@@H](C)C(=O)N[C@@H](Cc1ccc([N+](=O)[O-])cc1)C(=O)NC(CCC(=O)O)C(=O)O (stereo in doubt) | 710 nM |
| CC[C@H](C)[C@H](NC(=O)[C@@H]1CCCN1C(=O)C(CCC(=O)O)NC(=O)[C@H](Cc1ccc(O)cc1)NC(=O)CCC(=O)O)C(=O)N1CCC[C@H]1C(=O)NC(CCC(=O)O)C(=O)NC(CCC(=O)O)C(=O)N[C@@H](Cc1ccc(N)cc1)C(=O)N[C@@H](CC(C)C)C(=O)NC(CCC(=O)O)C(=O)O (stereo in doubt) | 380 nM |
| CC[C@H](C)[C@H](NC(=O)[C@@H]1CCCN1C(=O)C(CCC(=O)O)NC(=O)[C@H](Cc1ccc(O)cc1)NC(=O)CCC(=O)O)C(=O)N1CCC[C@H]1C(=O)NC(CCC(=O)O)C(=O)NC(CCC(=O)O)C(=O)N[C@@H](Cc1ccc([N+](=O)[O-])cc1)C(=O)N[C@@H](CC(C)C)C(=O)NC(CCC(=O)O)C(=O)O (stereo in doubt) | 2800 nM |
| CC[C@H](C)[C@H](NC(=O)[C@@H]1CCCN1C(=O)C(CCC(=O)O)NC(=O)[C@H](Cc1ccc(O)cc1)NC(=O)CCC(=O)O)C(=O)N1CCC[C@H]1C(=O)NC(CCC(=O)O)C(=O)NC(CCC(=O)O)C(=O)N[C@@H](C)C(=O)N[C@@H](Cc1ccc(N)cc1)C(=O)NC(CCC(=O)O)C(=O)O (stereo in doubt) | 2900 nM |
| CC[C@H](C)[C@H](NC(=O)[C@@H]1CCCN1C(=O)C(CCC(=O)O)NC(=O)[C@H](Cc1ccccc1)NC(=O)CCC(=O)O)C(=O)N1CCC[C@H]1C(=O)NC(CCC(=O)O)C(=O)NC(CCC(=O)O)C(=O)N[C@@H](Cc1ccc(OS(=O)(=O)O)cc1)C(=O)N[C@@H](CC(C)C)C(=O)NC(CCC(=O)O)C(=O)O (stereo in doubt) | 87 nM |
| CC[C@H](C)[C@H](NC(=O)[C@@H]1CCCN1C(=O)C(CCC(=O)O)NC(=O)[C@H](Cc1ccccc1)NC(=O)CCC(=O)O)C(=O)N1CCC[C@H]1C(=O)NC(CCC(=O)O)C(=O)NC(CCC(=O)O)C(=O)N[C@@H](Cc1ccc(O)cc1)C(=O)N[C@@H](CC(C)C)C(=O)NC(CCC(=O)O)C(=O)O (stereo in doubt) | 1600 nM |
| CC[C@H](C)[C@H](NC(=O)[C@@H]1CCCN1C(=O)C(CCC(=O)O)NC(=O)[C@H](Cc1ccc(O)cc1)NC(=O)CCC(=O)O)C(=O)N1CCC[C@H]1C(=O)NC(CCC(=O)O)C(=O)NC(CCC(=O)O)C(=O)N[C@@H](C)C(=O)N[C@@H](Cc1ccc(NS(=O)(=O)O)cc1)C(=O)NC(CCC(=O)O)C(=O)O (stereo in doubt) | 2500 nM |
| CC[C@H](C)[C@H](NC(=O)[C@@H]1CCCN1C(=O)C(CCC(=O)O)NC(=O)[C@H](Cc1ccccc1)NC(=O)CCC(=O)O)C(=O)N1CCC[C@H]1C(=O)NC(CCC(=O)O)C(=O)NC(CCC(=O)O)C(=O)N[C@@H](C)C(=O)N[C@@H](Cc1ccc(O)cc1)C(=O)NC(CCC(=O)O)C(=O)O (stereo in doubt) | 1200 nM |
| H-GDFEPIPEDAYDE-OH | 2700 nM |
| CC[C@H](C)[C@H](NC(=O)[C@@H]1CCCN1C(=O)C(CCC(=O)O)NC(=O)[C@H](Cc1ccccc1)NC(=O)CCC(=O)O)C(=O)N1CCC[C@H]1C(=O)NC(CCC(=O)O)C(=O)NC(CCC(=O)O)C(=O)N[C@@H](C)C(=O)N[C@@H](Cc1ccc(OS(=O)(=O)O)cc1)C(=O)NC(CCC(=O)O)C(=O)O (stereo in doubt) | 300 nM |
| CC[C@H](C)[C@H](NC(=O)[C@@H]1CCCN1C(=O)C(CCC(=O)O)NC(=O)[C@H](Cc1ccc(O)cc1)NC(=O)CCC(=O)O)C(=O)N1CCC[C@H]1C(=O)NC(CCC(=O)O)C(=O)NC(CCC(=O)O)C(=O)N[C@@H](Cc1ccc(NS(=O)(=O)O)cc1)C(=O)N[C@@H](CC(C)C)C(=O)NC(CCC(=O)O)C(=O)O (stereo in doubt) | 120 nM |
